Where two headings read alike, the source gives them in different places.
Tests used:
[1] = biological target: T1, MAO-A (Homo sapiens, UniProt P21397); experiment: Inhibition of monoamine oxidase A in vitro; assay type: biochemical; details: read-out: IC50 for inhibition against MAO-A
T1 sequence (P21397 1-527): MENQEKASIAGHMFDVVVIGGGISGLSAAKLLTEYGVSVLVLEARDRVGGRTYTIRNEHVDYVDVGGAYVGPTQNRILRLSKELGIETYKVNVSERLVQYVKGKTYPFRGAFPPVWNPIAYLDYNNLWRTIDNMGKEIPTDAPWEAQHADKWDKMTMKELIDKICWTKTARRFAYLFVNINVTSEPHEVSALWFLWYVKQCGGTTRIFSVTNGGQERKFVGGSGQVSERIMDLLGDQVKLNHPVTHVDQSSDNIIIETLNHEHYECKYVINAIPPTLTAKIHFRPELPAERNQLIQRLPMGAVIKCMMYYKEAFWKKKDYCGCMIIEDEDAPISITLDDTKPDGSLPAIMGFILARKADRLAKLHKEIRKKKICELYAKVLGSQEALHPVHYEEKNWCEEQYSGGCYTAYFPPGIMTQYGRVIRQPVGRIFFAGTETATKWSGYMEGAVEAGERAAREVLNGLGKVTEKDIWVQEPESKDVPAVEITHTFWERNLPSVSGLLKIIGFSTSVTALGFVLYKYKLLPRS
Description: (§1) Each data point is the average of three determinations±standard error.

[2] = test system: MCF-7 breast tumor line; assay type: cell-based; details: MTS assay, 72 hours; read-out: IC50 growth inhibition in MCF-7 cells
[3] = test system: Calu-6 lung tumor line; experiment: cells; assay type: cell-based, human; details: MTS assay, 72 hours, read-out: IC50 growth inhibition in Calu-6 cells
[4] = biological target: T2, MAO-B (Homo sapiens, UniProt P27338); experiment: Inhibition of monoamine oxidase B in vitro; assay type: biochemical; details: read-out: IC50 for inhibition against MAO-B
T2 sequence (P27338 1-520): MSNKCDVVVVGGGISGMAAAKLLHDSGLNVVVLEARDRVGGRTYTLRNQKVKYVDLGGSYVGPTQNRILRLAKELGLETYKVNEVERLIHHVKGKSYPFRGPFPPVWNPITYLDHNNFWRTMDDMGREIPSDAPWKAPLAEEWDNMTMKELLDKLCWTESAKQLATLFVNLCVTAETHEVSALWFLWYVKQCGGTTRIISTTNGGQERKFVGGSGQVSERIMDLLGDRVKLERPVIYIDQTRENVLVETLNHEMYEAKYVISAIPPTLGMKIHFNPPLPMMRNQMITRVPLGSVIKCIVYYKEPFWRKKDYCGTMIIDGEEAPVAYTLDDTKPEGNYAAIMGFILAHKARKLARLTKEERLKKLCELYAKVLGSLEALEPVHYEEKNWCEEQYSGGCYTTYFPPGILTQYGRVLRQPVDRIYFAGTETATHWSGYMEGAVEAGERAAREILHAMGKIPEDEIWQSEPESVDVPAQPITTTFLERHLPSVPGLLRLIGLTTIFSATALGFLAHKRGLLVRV
Description: as §1

CSCC[C@H](NC(=O)[C@@H](NC(=O)[C@H](CCCNC(=N)N)NC(=O)[C@H](C)N)[C@@H](C)O)C(=O)N[C@H]1CCCCNC(=O)CC[C@@H](C(=O)N[C@H](C(=O)NCC(=O)NCC(=O)N[C@@H](CCCCN)C(=O)N[C@@H](C)C(=O)N2CCC[C@H]2C(=O)N[C@@H](CCCNC(=N)N)C(=O)N[C@@H](CCCCN)C(=O)N[C@@H](CCC(N)=O)C(=O)N[C@@H](CC(C)C)C(=O)N[C@@H](C)C(N)=O)[C@@H](C)O)NC(=O)[C@H](CCCCN)NC(=O)[C@H](CCCNC(=N)N)NC(=O)[C@H](C)NC(=O)[C@H]([C@@H](C)O)NC1=O [compound 11]
IC50 [1]: > 100 µM | IC50 [2]: 157 µM | IC50 [3]: 125 µM | IC50 [4]: > 100 µM

N=C(NCCCNCCCCCCCNCCCNC(=N)NC(=N)NCCC(c1ccccc1)c1ccccc1)NC(=N)NCCC(c1ccccc1)c1ccccc1 [compound 3, verlindamycin, reference compound]
IC50 ([3]; Homo sapiens, Calu-6): 10.9 µM
